We go through 17 molecules from PMC11783063, “Design, synthesis, and apoptotic antiproliferative action of new benzimidazole/1,2,3-triazole hybrids as EGFR inhibitors” (Frontiers in Chemistry, 2025).

Read-outs that look alike come from different tables or passages of the source.

For data set [1], the system named is A-549 (lung cancer cell line). Description: Antiproliferative assay, A-549. The conditions noted are these: read-out: Antiproliferative activity IC50 ± SEM, A-549. It counts as cell-based, human. An excerpt:
(§1) Refer to Supplementary Appendix A for more information.
(§2) DMSO (0.1%) was used as control.

The test system of data set [2] is MCF-7 (breast cancer cell line). Nature of the data set: Antiproliferative assay, MCF-7. It counts as cell-based, human. The conditions noted are these: read-out: Antiproliferative activity IC50 ± SEM, MCF-7.
Source text: as §1, §2

The test system of data set [3] is Panc-1 (pancreatic cancer cell line). Nature of the data set: Antiproliferative assay, Panc-1. It counts as cell-based, human. The conditions noted are these: read-out: Antiproliferative activity IC50 ± SEM, Panc-1.
Source text: as §1, §2

In data set [4] the test system is HT-29 (colon cancer cell line). Nature of the data set: Antiproliferative assay, HT-29. It counts as cell-based, human. The conditions noted are these: read-out: Antiproliferative activity IC50 ± SEM, HT-29.
Source text: as §1, §2

Data set [5] deals with MCF-10A normal human mammary gland epithelial cell line. The conditions noted are these: 50 µM.
Method: (§3) The medium in which cells were propagated contained Dulbecco's modified Eagle's medium (DMEM)/ Ham's F-12 medium (1:1) supplemented with epidermal growth factor (20 ng/mL), hydrocortisone (500 ng/mL), insulin (10 μg/mL), 2 mM glutamine and 10% foetal calf serum. After every 2-3 days, the cells were passed using trypsin ethylenediamine tetra acetic acid (EDTA). The cells were seeded at a density of 10^4 cells mL^-1 in flat-bottomed culture plates containing 96 wells each. After 24 h, medium was removed from the plates and the compounds in (in 0.1% DMSO) were added (in 200 μL medium to yield a final concentration of 0.1% v/v) to the wells of plates. A single compound was designated with four wells followed by incubation of plates for 96h at 37°C. After incubation, medium was removed completely from the plates followed by addition of MTT (0.4 mg/mL in medium) to each well and subsequent incubation of plates for 3h. MTT (along with the medium) was removed and DMSO (150μL) was added to each well of the culture plates, followed by vortexing and subsequent measurement of absorbance (at 540 nm) using microplate reader.
In data set [6] the test system is four human cancer cell lines (HT-29, A-549, MCF-7, Panc-1). Description: Antiproliferative assay, mean over four cancer cell lines (GI50). The conditions noted are these: for IC50: read-out: Average IC50 (GI50).
Method: To calculate the total nuclear DNA, a fluorescent dye (propidium iodide, PI) is used which can attach to the DNA, thus offering a quick and precise technique. PI cannot pass through the cell membrane and its signal intensity can be considered as directly proportional to quantity of cellular DNA. Cells whose cell membranes are damaged or have changed permeability are counted as dead ones. […] The medium was removed; the compounds were added to the plates at 10 µM concentrations (in 0.1% DMSO) in triplicates, followed by incubation for 48 h. DMSO (0.1%) was used as control. After incubation, medium was removed followed by the addition of PI (25 µl, 50µg/mL in water/medium) to each well of the plates. At -80 °C, the plates were allowed to freeze for 24 h, followed by thawing at 25 °C. A fluorometer (Polar-Star BMG Tech) was used to record the readings at excitation and emission wavelengths of 530 and 620 nm for each well. The percentage cytotoxicity of compounds was calculated using the following formula:
Another data set concerns the target EGFR (Homo sapiens, UniProt P00533). Description: EGFR-TK inhibitory assay.
Data set [7] can be described thus: Cell viability assay (MTT) on MCF-10A normal cells. The conditions noted are these: human, MCF-10A normal mammary gland epithelial cells.
Method: as §3
The mark [8] stands for this setting: mean IC50 of A-549, MCF-7, Panc-1, HT-29.

Sequence of EGFR (P00533 669-1210): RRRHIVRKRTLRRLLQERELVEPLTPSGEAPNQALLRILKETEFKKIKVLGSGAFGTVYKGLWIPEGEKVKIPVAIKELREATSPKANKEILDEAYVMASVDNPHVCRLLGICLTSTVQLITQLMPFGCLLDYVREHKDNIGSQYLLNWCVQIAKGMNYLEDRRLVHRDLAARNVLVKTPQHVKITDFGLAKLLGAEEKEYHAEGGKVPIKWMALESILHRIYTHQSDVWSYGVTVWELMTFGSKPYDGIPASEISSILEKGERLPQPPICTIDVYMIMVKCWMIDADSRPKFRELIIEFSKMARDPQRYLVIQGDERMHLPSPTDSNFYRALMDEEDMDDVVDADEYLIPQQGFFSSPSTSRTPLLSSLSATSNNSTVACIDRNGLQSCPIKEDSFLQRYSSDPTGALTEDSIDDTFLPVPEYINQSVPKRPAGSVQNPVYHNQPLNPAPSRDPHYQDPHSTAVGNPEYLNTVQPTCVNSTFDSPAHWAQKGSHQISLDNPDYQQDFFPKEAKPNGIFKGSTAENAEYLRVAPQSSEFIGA
Method for EGFR: To record autophosphorylation level, EGFR kinase assay was carried out on the basis of DELFIA/Time-Resolved Fluorometry. […] Each compound (10 µL) was incubated with recombinant enzyme (10 µL, 5 ng for EGFR, 1:80 dilution in 100 mM HEPES) for 10 min at 25 °C, subsequent to the addition of 5X buffer (10 µL, containing 2 mM MnCl2, 100 µM Na3VO4, 20 mM HEPES and 1 mM DTT) and ATP-MgCl2 (20 µL, containing 0.1 mM ATP and 50 mM MgCl2) and incubation for 1h. The negative and positive controls were included in each plate by the incubation of enzyme either with or without ATP-MgCl2. The liquid was removed after incubation and the plates were washed thrice using wash buffer. Europium-tagged antiphosphotyrosine antibody (75 µL, 400 ng) was added to each well followed by incubation of 1h and then washing of the plates using buffer. […] The autophosphorylation percentage inhibition by compounds was calculated using the following equation:

Usually IC50 stands for the concentration at which inhibition is half-maximal. “2-(Benzylthio)-1-((1-(4-chlorophenyl)-1H-1,2,3-triazol-5-yl)methyl)-1H-benzimidazole [10b]”: the IC50 came out at 0.048 ± 0.004 µM in data set [1] (A-549), 0.044 ± 0.003 µM in data set [2] (MCF-7), 0.048 ± 0.004 µM in data set [3] (Panc-1) and 0.048 ± 0.004 µM in data set [4]. The molecule further showed a Cell viability % in data set [5] of 86%.
Consider “2-(Benzylthio)-1-((1-(4-bromophenyl)-1H-1,2,3-triazol-5-yl)methyl)-1H-benzimidazole [10c]”, for which the 50% inhibitory concentration (IC50) in data set [1] (A-549) worked out at 0.055 ± 0.005 µM; in data set [2] (MCF-7), 0.052 ± 0.005 µM; in data set [3] (Panc-1), 0.054 ± 0.005 µM; in data set [4], 0.054 ± 0.005 µM; in data set [6] (setting [8]), 0.054 µM. This molecule yielded a Cell viability % in data set [5] of 92%.
The term viability denotes a per cent measure of how many cells are alive, often set against a control. For `COc1ccc(-n2cc(Cn3c(SCc4ccccc4)nc4ccccc43)nn2)cc1` [10g], the IC50 in data set [1] (Homo sapiens, A549) worked out at 0.034 ± 0.003 µM; in data set [2] (Homo sapiens, MCF7) it was 0.032 ± 0.003 µM; in data set [3] (Homo sapiens, PANC-1), 0.034 ± 0.003 µM; in data set [4] (Homo sapiens) it was 0.035 ± 0.003 µM; against EGFR, 0.082 ± 0.005 µM; in data set [6] (Homo sapiens) it was 0.034 µM. In addition, the viability at 4 days, 50 µM in data set [7] turned out to be 90%.
Take `Brc1ccc(-n2cc(CSc3nc4ccccc4[nH]3)nn2)cc1` [6c, 2-(((1-(4-Bromophenyl)-1H-1,2,3-triazol-4-yl)methyl)thio)-1H-benzimidazole]: the IC50 is 0.096 ± 0.009 µM in data set [1] (Homo sapiens, A549); 0.09 ± 0.008 µM in data set [2] (Homo sapiens, MCF7); 0.096 ± 0.009 µM in data set [3] (Homo sapiens, PANC-1); 0.094 ± 0.009 µM in data set [4] (Homo sapiens); 0.094 µM in data set [6] (Homo sapiens). The molecule further gave a viability at 4 days, 50 µM in data set [7] of 91%.
For `O=[N+]([O-])c1ccc(-n2cc(Cn3c(SCc4ccccc4)nc4ccccc43)nn2)cc1` [10d], the IC50 in data set [1] (Homo sapiens, A549) turned out to be 0.037 ± 0.003 µM; in data set [2] (Homo sapiens, MCF7) it was 0.034 ± 0.003 µM; in data set [3] (Homo sapiens, PANC-1), 0.036 ± 0.003 µM; in data set [4] (Homo sapiens), 0.038 ± 0.003 µM; against EGFR, 0.086 ± 0.006 µM; in data set [6] (Homo sapiens), 0.036 µM. The molecule further gave a viability at 4 days, 50 µM in data set [7] of 89%. The “Potency relative to 10e (GI50), fold less potent” value in data set [6] (GI50 vs 10e) turned out to be 1.5 fold.
As to `COc1cccc(-n2cc(CSc3nc4ccccc4[nH]3)nn2)c1` [6h, 2-(((1-(3-Methoxyphenyl)-1H-1,2,3-triazol-4-yl)methyl)thio)-1H-benzimidazole], the IC50 was 0.069 ± 0.006 µM in data set [1] (Homo sapiens, A549); 0.066 ± 0.006 µM in data set [2] (Homo sapiens, MCF7); 0.069 ± 0.006 µM in data set [3] (Homo sapiens, PANC-1); 0.068 ± 0.006 µM in data set [4] (Homo sapiens); 0.068 µM in data set [6] (Homo sapiens). Further, in data set [7], the viability at 4 days, 50 µM came out at 91%.
Take `O=[N+]([O-])c1cccc(-n2cc(CSc3nc4ccccc4[nH]3)nn2)c1` [6e, 2-(((1-(3-Nitrophenyl)-1H-1,2,3-triazol-4-yl)methyl)thio)-1H-benzimidazole]: the IC50 turned out to be 0.04 ± 0.003 µM in data set [1] (Homo sapiens, A549); 0.036 ± 0.003 µM in data set [2] (Homo sapiens, MCF7); 0.038 ± 0.003 µM in data set [3] (Homo sapiens, PANC-1); 0.038 ± 0.003 µM in data set [4] (Homo sapiens); 0.089 ± 0.006 µM at EGFR; 0.038 µM in data set [6] (Homo sapiens). In addition, the viability at 4 days, 50 µM in data set [7] is 86%.
For the molecule `c1ccc(-n2cc(CSc3nc4ccccc4[nH]3)nn2)cc1` [6a, 2-(((1-Phenyl-1H-1,2,3-triazol-4-yl)methyl)thio)-1H-benzimidazole], the half-maximal inhibitory concentration (IC50) in data set [1] (Homo sapiens, A549) came to 0.089 ± 0.008 µM; in data set [2] (Homo sapiens, MCF7) it was 0.085 ± 0.007 µM; in data set [3] (Homo sapiens, PANC-1), 0.089 ± 0.008 µM; in data set [4] (Homo sapiens) it was 0.088 ± 0.008 µM; in data set [6] (Homo sapiens) it was 0.088 µM. Also, in data set [7], the viability at 4 days, 50 µM worked out at 84%.
`COc1ccc(-n2cc(CSc3nc4ccccc4[nH]3)nn2)cc1` [6g, 2-(((1-(4-Methoxyphenyl)-1H-1,2,3-triazol-4-yl)methyl)thio)-1H-benzimidazole]: the IC50 in data set [1] (Homo sapiens, A549) came out at 0.072 ± 0.007 µM; in data set [2] (Homo sapiens, MCF7), 0.069 ± 0.006 µM; in data set [3] (Homo sapiens, PANC-1), 0.072 ± 0.007 µM; in data set [4] (Homo sapiens), 0.074 ± 0.007 µM; in data set [6] (Homo sapiens), 0.072 µM. In addition, in data set [7], the viability at 4 days, 50 µM came out at 89%.
In the case of `NS(=O)(=O)c1ccc(-n2cc(Cn3c(SCc4ccccc4)nc4ccccc43)nn2)cc1` [10i], the IC50 in data set [1] (Homo sapiens, A549) worked out at 0.044 ± 0.004 µM; in data set [2] (Homo sapiens, MCF7), 0.042 ± 0.004 µM; in data set [3] (Homo sapiens, PANC-1) it was 0.044 ± 0.004 µM; in data set [4] (Homo sapiens), 0.045 ± 0.004 µM; in data set [6] (Homo sapiens), 0.043 µM. Moreover, the viability at 4 days, 50 µM in data set [7] was 91%.
For the molecule “2-(Benzylthio)-1-((1-(3-methoxyphenyl)-1H-1,2,3-triazol-5-yl)methyl)-1H-benzimidazole [10h]”, the IC50 in data set [1] (A-549) was 0.076 ± 0.007 µM; in data set [2] (MCF-7), 0.072 ± 0.007 µM; in data set [3] (Panc-1), 0.076 ± 0.007 µM; in data set [4] it was 0.076 ± 0.007 µM; in data set [6] (setting [8]), 0.075 µM. The Cell viability % in data set [5] stood at 89%.
For `C#Cc1cccc(Nc2ncnc3cc(OCCOC)c(OCCOC)cc23)c1` [Erlotinib, reference compound], in data set [6] (Homo sapiens), the IC50 is 0.033 µM.
Turning to “2-(Benzylthio)-1-((1-(p-tolyl)-1H-1,2,3-triazol-5-yl)methyl)-1H-benzimidazole [10f]”, the IC50 in data set [1] (A-549) came out at 0.066 ± 0.006 µM; in data set [2] (MCF-7), 0.063 ± 0.006 µM; in data set [3] (Panc-1), 0.065 ± 0.006 µM; in data set [4] it was 0.065 ± 0.006 µM; in data set [6] (setting [8]), 0.065 µM. Besides, the Cell viability % in data set [5] came out at 89%.
With `Cc1ccc(-n2cc(CSc3nc4ccccc4[nH]3)nn2)cc1` [6f, 2-(((1-(p-Tolyl)-1H-1,2,3-triazol-4-yl)methyl)thio)-1H-benzimidazole], the IC50 stood at 0.081 ± 0.007 µM in data set [1] (Homo sapiens, A549); 0.078 ± 0.007 µM in data set [2] (Homo sapiens, MCF7); 0.08 ± 0.007 µM in data set [3] (Homo sapiens, PANC-1); 0.082 ± 0.007 µM in data set [4] (Homo sapiens); 0.08 µM in data set [6] (Homo sapiens). This molecule also yielded a viability at 4 days, 50 µM in data set [7] of 90%.
Regarding `Clc1ccc(-n2cc(CSc3nc4ccccc4[nH]3)nn2)cc1` [6b, 2-(((1-(4-Chlorophenyl)-1H-1,2,3-triazol-4-yl)methyl)thio)-1H-benzimidazole], the IC50 amounted to 0.047 ± 0.004 µM in data set [1] (Homo sapiens, A549); 0.045 ± 0.004 µM in data set [2] (Homo sapiens, MCF7); 0.048 ± 0.004 µM in data set [3] (Homo sapiens, PANC-1); 0.048 ± 0.004 µM in data set [4] (Homo sapiens); 0.047 µM in data set [6] (Homo sapiens). In data set [7], this molecule returned a viability at 4 days, 50 µM of 87%.
Take `O=[N+]([O-])c1ccc(-n2cc(CSc3nc4ccccc4[nH]3)nn2)cc1` [6d, 2-(((1-(4-Nitrophenyl)-1H-1,2,3-triazol-4-yl)methyl)thio)-1H-benzimidazole]: the IC50 came out at 0.085 ± 0.007 µM in data set [1] (Homo sapiens, A549); 0.083 ± 0.007 µM in data set [2] (Homo sapiens, MCF7); 0.086 ± 0.008 µM in data set [3] (Homo sapiens, PANC-1); 0.086 ± 0.008 µM in data set [4] (Homo sapiens); 0.085 µM in data set [6] (Homo sapiens). The viability at 4 days, 50 µM in data set [7] is 93%.
For the molecule “2-(Benzylthio)-1-((1-phenyl-1H-1,2,3-triazol-5-yl)methyl)-1H-benzimidazole [10a]”, the IC50 in data set [1] (A-549) stood at 0.059 ± 0.005 µM; in data set [2] (MCF-7), 0.056 ± 0.005 µM; in data set [3] (Panc-1) it was 0.06 ± 0.005 µM; in data set [4] it was 0.06 ± 0.005 µM; in data set [6] (setting [8]) it was 0.059 µM. This molecule displayed a Cell viability % in data set [5] of 87%.
